The target in experiment [1] is T1, Muscarinic acetylcholine receptor M1 (Homo sapiens, UniProt P11229).
T1 sequence (P11229 whole entry): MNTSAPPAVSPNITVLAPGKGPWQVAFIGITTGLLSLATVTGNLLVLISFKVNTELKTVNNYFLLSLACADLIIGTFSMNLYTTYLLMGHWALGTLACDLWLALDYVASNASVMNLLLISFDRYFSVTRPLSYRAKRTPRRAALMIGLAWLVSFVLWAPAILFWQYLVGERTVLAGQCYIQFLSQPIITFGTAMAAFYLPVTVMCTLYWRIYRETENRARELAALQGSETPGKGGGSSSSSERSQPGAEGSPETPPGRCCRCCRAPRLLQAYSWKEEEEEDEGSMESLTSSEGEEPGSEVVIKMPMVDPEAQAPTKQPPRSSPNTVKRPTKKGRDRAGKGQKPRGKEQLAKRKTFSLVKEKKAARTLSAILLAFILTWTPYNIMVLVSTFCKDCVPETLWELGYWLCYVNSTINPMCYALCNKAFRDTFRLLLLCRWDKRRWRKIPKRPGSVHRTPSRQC
The experiment can be described thus: Displacement of [3H]pirenzepine from Muscarinic receptor M1. A general note: Displacement assays read how much labelled ligand stays bound in the presence of the test substance.

Experiment [2] is described as follows: Selectivity of SERT over DAT.
Experiment [3] is described as follows: Selectivity of NET over DAT.
Experiment [4] deals with Sodium-dependent serotonin transporter (Homo sapiens, UniProt P31645). The experiment can be described thus: Displacement of [3H]citalopram from SERT.
Experiment [5] is described as follows: Selectivity of Muscarinic receptor M1 over DAT.
For experiment [6], the target named is Sodium-dependent noradrenaline transporter (Homo sapiens, UniProt P23975). Kind of experiment: Displacement of [3H]nisoxetine from NET.
In experiment [7] the target is Sodium-dependent dopamine transporter (Rattus norvegicus, UniProt P23977). Kind of experiment: Displacement of [3H]WIN-from DAT in rat brain membrane. It is filed as cell membranes.

Drawing on ChEMBL document CHEMBL1141240, “N-8-Substituted benztropinamine analogs as selective dopamine transporter ligands” (Bioorg Med Chem Lett, 2005), this text covers Ki and Ratio Ki for 17 compounds.

SMILES strings stand for the structures.

Sequence of Sodium-dependent dopamine transporter (P23977 whole entry): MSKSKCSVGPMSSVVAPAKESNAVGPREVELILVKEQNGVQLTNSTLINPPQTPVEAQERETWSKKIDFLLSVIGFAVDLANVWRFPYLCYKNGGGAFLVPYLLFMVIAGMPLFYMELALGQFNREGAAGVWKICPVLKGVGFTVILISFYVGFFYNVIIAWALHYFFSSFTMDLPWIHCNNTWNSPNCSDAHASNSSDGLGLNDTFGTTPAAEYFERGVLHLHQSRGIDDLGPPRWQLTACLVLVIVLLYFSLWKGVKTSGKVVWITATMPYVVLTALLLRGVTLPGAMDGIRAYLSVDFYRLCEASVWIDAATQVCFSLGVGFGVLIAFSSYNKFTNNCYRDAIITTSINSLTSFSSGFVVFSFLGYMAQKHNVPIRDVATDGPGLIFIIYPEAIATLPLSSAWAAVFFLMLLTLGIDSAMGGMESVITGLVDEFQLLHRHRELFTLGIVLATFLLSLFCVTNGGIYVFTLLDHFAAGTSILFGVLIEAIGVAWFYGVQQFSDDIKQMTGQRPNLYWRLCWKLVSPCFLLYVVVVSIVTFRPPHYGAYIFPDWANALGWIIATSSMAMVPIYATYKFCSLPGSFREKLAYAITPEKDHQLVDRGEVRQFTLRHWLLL
Sequence of Sodium-dependent noradrenaline transporter (P23975 whole entry): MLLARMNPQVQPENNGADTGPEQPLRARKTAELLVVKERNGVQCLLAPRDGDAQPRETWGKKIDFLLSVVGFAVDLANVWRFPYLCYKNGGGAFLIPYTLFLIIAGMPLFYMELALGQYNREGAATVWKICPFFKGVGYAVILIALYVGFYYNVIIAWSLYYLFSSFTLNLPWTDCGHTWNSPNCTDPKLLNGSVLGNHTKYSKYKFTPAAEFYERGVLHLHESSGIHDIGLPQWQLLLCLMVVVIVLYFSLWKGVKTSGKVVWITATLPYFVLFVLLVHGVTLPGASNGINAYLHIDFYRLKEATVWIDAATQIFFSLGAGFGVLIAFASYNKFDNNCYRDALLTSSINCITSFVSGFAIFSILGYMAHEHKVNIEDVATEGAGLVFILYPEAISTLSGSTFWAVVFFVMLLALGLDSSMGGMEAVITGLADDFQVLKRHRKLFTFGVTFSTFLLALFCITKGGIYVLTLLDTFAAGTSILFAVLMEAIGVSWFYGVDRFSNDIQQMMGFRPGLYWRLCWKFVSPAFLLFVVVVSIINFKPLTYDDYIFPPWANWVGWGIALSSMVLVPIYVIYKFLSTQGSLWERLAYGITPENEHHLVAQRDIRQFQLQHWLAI
Sequence of Sodium-dependent serotonin transporter (P31645 whole entry): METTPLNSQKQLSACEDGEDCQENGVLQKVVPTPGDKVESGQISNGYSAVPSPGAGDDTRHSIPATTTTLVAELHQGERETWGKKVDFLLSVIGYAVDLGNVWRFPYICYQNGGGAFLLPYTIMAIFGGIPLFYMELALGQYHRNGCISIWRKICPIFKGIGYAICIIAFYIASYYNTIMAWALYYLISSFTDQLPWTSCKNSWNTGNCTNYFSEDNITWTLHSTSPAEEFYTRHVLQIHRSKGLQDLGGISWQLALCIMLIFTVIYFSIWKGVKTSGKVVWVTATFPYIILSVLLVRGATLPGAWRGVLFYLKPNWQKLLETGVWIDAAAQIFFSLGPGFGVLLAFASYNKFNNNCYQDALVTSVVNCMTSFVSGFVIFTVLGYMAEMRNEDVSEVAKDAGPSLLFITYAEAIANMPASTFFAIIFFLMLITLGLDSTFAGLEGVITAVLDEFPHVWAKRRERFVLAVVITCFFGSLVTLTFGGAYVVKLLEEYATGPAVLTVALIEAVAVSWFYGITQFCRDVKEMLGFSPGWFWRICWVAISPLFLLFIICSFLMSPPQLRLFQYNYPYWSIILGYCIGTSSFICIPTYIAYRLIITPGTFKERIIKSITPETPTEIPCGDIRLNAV

One may read the Ki as a dissociation constant, usually derived from enzyme kinetics or from competition with a known ligand. Read a high Ki as lower affinity. Turning to `O=C(CCN1[C@@H]2CC[C@H]1C[C@@H](NC(c1ccc(F)cc1)c1ccc(F)cc1)C2)Nc1ccccc1`, the Ki stood at 2.54 µM in experiment [1], 0.608 µM in experiment [4] and 2.47 µM in experiment [6]. The Ratio Ki was 132 in experiment [2], 536 in experiment [3] and 551 in experiment [5].

In experiment [7], `Fc1ccc(C(O[C@H]2C[C@H]3CC[C@@H](C2)N3CCc2c[nH]c3ccccc23)c2ccc(F)cc2)cc1` registered a Ki of 0.0292 µM.

Take `CN1[C@@H]2CC[C@H]1C[C@@H](NC(c1ccc(Cl)c(Cl)c1)c1ccc(Cl)c(Cl)c1)C2`: the inhibition constant Ki in experiment [1] came out at 0.0178 µM; in experiment [4], 3.01 µM; in experiment [6], 0.259 µM. Besides, the Ratio Ki was determined as 563 in experiment [2], 48 in experiment [3] and 3 in experiment [5].

Consider `CCCCN1[C@@H]2CC[C@H]1C[C@@H](NC(c1ccc(F)cc1)c1ccc(F)cc1)C2`, for which the Ki was found to be 0.454 µM in experiment [1], 2.64 µM in experiment [4] and 2.92 µM in experiment [6]. In addition, the Ratio Ki in experiment [2] is 123; in experiment [3] it was 136; in experiment [5] it was 21.

Consider `NCCN1[C@@H]2CC[C@H]1C[C@@H](NC(c1ccc(F)cc1)c1ccc(F)cc1)C2`, for which the inhibitory constant (Ki) in experiment [1] worked out at 2.11 µM; in experiment [4], 10.9 µM; in experiment [6], 3.55 µM. The Ratio Ki in experiment [5] amounted to 169.

`CN1[C@@H]2CC[C@H]1C[C@@H](NC(c1ccccc1)c1ccc(Cl)cc1)C2` (stereo partly specified): the Ki in experiment [1] was 0.0093 µM; in experiment [4] it was 13.6 µM; in experiment [6], 3.17 µM. In addition, the values for the Ratio Ki in experiment [2], in experiment [3] and in experiment [5] were 373, 87 and 0.3, respectively.

As for `Fc1ccc(C(N[C@H]2C[C@H]3CC[C@@H](C2)N3CCCCc2ccccc2)c2ccc(F)cc2)cc1`, the inhibition constant (Ki) in experiment [1] stood at 0.438 µM; in experiment [4], 0.502 µM; in experiment [6], 1.63 µM. Besides, the figures for the Ratio Ki in experiment [2], in experiment [3] and in experiment [5] were 43, 139 and 37, respectively.

On to `NCCN1[C@@H]2CC[C@H]1C[C@@H](OC(c1ccc(F)cc1)c1ccc(F)cc1)C2`, for which the inhibition constant (Ki) in experiment [7] worked out at 0.00559 µM.

As to `O=C(CCN1[C@@H]2CC[C@H]1C[C@@H](OC(c1ccc(F)cc1)c1ccc(F)cc1)C2)Nc1ccccc1`, the affinity in experiment [7], expressed as Ki, was 0.00622 µM.

Turning to `CN1C2CCC1CC(OC(c1ccc(F)cc1)c1ccc(F)cc1)C2` (stereo unspecified) [DIFLUOROBENZTROPINE], the results for the inhibition constant (Ki) in experiment [1], in experiment [4] and in experiment [6] were 0.0116 µM, 3.26 µM and 0.844 µM, respectively.

For `CN1[C@@H]2CC[C@H]1C[C@@H](NC(c1ccc(Cl)cc1)c1ccc(Cl)cc1)C2`, the Ki in experiment [1] came to 0.05 µM; in experiment [4] it was 4.18 µM; in experiment [6], 7.58 µM.

As for `CN1[C@@H]2CC[C@H]1C[C@H](NC(c1ccc(F)cc1)c1ccc(F)cc1)C2`, the Ki in experiment [1] was determined as 0.0594 µM; in experiment [4], 48.5 µM; in experiment [6], 152 µM. Moreover, the results for the Ratio Ki in experiment [2], in experiment [3] and in experiment [5] were 73, 230 and 0.1, respectively.

For the compound `CN1[C@@H]2CC[C@H]1C[C@@H](NC(c1ccc(F)cc1)c1ccc(F)cc1)C2`, the Ki was found to be 0.00781 µM in experiment [1], 8.68 µM in experiment [4] and 1.81 µM in experiment [6]. In addition, the Ratio Ki in experiment [2] is 769; in experiment [3], 160; in experiment [5] it was 0.7.

For the compound `Fc1ccc(C(N[C@H]2C[C@H]3CC[C@@H](C2)N3CCc2c[nH]c3ccccc23)c2ccc(F)cc2)cc1`, the inhibition constant (Ki) amounted to 0.413 µM in experiment [1], 0.347 µM in experiment [4] and 8.25 µM in experiment [6].

Turning to `CN(C(c1ccc(F)cc1)c1ccc(F)cc1)[C@H]1C[C@H]2CC[C@@H](C1)N2C`, the Ki in experiment [1] worked out at 0.0186 µM; in experiment [4] it was 17.2 µM; in experiment [6] it was 8.41 µM. The Ratio Ki in experiment [2] was 140; in experiment [3], 68; in experiment [5], 0.2.

In the case of `C=CCN1[C@@H]2CC[C@H]1C[C@@H](NC(c1ccc(F)cc1)c1ccc(F)cc1)C2`, the results for the Ki in experiment [1], in experiment [4] and in experiment [6] were 0.13 µM, 3.92 µM and 5.58 µM, respectively. The Ratio Ki was 146 in experiment [2], 208 in experiment [3] and 5 in experiment [5].

Consider `Fc1ccc(C(N[C@H]2C[C@H]3CC[C@@H](C2)N3)c2ccc(F)cc2)cc1`, for which the Ki worked out at 0.154 µM in experiment [1], 4.15 µM in experiment [4] and 0.997 µM in experiment [6]. The results for the Ratio Ki in experiment [2], in experiment [3] and in experiment [5] were 491, 118 and 18, respectively.
